Calls of active or inactive are those of the source. No cut-off for these calls is given here.
Key:
[1] = tested on: BaF3; experiment: Cytotoxicity against mouse BaF3 cells stably expressing ABL wildtype assessed as cell growth inhibition incubated for 72 hrs by celltiter-glo luminescent cell viability assay; format: functional
[2] = biological target: Tyrosine-protein kinase ABL1 (Homo sapiens, UniProt P00519); experiment: Inhibition of NanoLuc-tagged ABL1 wild type (unknown origin) expressed in HEK293 cells by NanoBRET TE assay; format: cell-based
[3] = tested on: BaF3; experiment: Cytotoxicity against mouse BaF3 cells stably expressing ABL-T315I mutant assessed as cell growth inhibition incubated for 72 hrs by celltiter-glo luminescent cell viability assay; format: functional
[4] = biological target: MAP kinase-interacting serine/threonine-protein kinase 1 (Homo sapiens) (UniProt Q9BUB5); experiment: Inhibition of MKNK1 (unknown origin) by Nano-syn mobility shift assay
[5] = biological target: RAF proto-oncogene serine/threonine-protein kinase (Homo sapiens) (UniProt P04049); experiment: Inhibition of CRAF (unknown origin) by Nano-syn mobility shift assay
Chain of RAF proto-oncogene serine/threonine-protein kinase (Homo sapiens) (P04049 whole entry): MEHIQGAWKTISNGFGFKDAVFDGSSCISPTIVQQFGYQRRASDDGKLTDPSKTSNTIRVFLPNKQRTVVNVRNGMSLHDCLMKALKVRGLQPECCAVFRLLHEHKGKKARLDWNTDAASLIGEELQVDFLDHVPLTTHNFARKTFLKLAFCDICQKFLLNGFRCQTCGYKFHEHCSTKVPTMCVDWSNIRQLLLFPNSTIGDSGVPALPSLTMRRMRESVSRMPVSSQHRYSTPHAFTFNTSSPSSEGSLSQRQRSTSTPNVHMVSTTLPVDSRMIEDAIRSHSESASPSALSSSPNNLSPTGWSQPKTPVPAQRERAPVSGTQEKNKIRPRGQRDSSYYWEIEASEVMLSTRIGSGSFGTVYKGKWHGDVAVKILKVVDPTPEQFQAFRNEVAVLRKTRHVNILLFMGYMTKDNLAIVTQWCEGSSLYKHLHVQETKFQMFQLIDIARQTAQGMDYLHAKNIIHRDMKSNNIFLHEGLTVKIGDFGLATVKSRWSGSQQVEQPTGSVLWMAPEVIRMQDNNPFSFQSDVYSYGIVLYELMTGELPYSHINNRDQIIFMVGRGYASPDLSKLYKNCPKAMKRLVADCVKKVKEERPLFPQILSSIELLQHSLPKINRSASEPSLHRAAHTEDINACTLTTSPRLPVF

[6] = biological target: Vascular endothelial growth factor receptor 2 (Homo sapiens) (UniProt P35968); experiment: Inhibition of KDR (unknown origin) by Nano-syn mobility shift assay
[7] = biological target: Mitogen-activated protein kinase 11 (Homo sapiens) (UniProt Q15759); experiment: Inhibition of MAPK11 (unknown origin) by Nano-syn mobility shift assay
Chain of Mitogen-activated protein kinase 11 (Homo sapiens) (Q15759 whole entry): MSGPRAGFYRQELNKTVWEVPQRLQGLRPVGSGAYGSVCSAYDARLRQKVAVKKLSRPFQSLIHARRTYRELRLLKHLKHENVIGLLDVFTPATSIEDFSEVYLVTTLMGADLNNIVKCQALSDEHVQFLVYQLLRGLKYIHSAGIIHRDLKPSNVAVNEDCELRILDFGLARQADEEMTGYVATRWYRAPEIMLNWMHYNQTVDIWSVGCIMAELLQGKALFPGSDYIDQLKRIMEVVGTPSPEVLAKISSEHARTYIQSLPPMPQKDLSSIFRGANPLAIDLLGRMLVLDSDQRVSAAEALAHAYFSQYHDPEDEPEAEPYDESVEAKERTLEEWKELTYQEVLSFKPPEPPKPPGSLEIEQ

[8] = biological target: Mitogen-activated protein kinase 14 (Homo sapiens) (UniProt Q16539); experiment: Inhibition of MAPK14 (unknown origin) by Nano-syn mobility shift assay
[9] = tested on: K562; experiment: Cytotoxicity against human K562 cells assessed as cell growth inhibition incubated for 72 hrs by celltiter-glo luminescent cell viability assay; format: functional
[10] = biological target: MAP kinase-interacting serine/threonine-protein kinase 2 (Homo sapiens) (UniProt Q9HBH9); experiment: Inhibition of MKNK2 (unknown origin) by Nano-syn mobility shift assay
Chain of MAP kinase-interacting serine/threonine-protein kinase 2 (Homo sapiens) (Q9HBH9 whole entry, looked up): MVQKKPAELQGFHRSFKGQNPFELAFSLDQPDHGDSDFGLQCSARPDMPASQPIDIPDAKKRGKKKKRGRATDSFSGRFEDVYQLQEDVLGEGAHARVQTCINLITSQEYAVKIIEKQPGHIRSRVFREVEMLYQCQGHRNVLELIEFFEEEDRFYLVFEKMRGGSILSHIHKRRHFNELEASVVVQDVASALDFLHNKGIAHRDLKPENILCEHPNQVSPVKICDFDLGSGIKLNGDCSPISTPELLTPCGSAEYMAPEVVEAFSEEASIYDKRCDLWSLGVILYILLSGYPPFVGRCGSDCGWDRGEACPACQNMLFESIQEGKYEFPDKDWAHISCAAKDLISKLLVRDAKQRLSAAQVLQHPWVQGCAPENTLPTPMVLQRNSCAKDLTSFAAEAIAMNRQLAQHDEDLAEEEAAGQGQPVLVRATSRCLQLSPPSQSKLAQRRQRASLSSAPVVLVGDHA

[11] = biological target: Tyrosine-protein kinase Fgr (Homo sapiens) (UniProt P09769); experiment: Inhibition of FGR (unknown origin) by Nano-syn mobility shift assay
[12] = biological target: Fibroblast growth factor receptor 3 (Homo sapiens) (UniProt P22607); experiment: Inhibition of FGFR3 (unknown origin) by Nano-syn mobility shift assay
[13] = biological target: Angiopoietin-1 receptor (Homo sapiens) (UniProt Q02763); experiment: Inhibition of TEK (unknown origin) by Nano-syn mobility shift assay; conditions: concentration not given here
[14] = biological target: Tyrosine-protein kinase ABL2 (Homo sapiens) (UniProt P42684); experiment: Inhibition of ABL2 (unknown origin) by Nano-syn mobility shift assay; conditions: concentration not given here
Chain of Tyrosine-protein kinase ABL2 (Homo sapiens) (P42684 whole entry): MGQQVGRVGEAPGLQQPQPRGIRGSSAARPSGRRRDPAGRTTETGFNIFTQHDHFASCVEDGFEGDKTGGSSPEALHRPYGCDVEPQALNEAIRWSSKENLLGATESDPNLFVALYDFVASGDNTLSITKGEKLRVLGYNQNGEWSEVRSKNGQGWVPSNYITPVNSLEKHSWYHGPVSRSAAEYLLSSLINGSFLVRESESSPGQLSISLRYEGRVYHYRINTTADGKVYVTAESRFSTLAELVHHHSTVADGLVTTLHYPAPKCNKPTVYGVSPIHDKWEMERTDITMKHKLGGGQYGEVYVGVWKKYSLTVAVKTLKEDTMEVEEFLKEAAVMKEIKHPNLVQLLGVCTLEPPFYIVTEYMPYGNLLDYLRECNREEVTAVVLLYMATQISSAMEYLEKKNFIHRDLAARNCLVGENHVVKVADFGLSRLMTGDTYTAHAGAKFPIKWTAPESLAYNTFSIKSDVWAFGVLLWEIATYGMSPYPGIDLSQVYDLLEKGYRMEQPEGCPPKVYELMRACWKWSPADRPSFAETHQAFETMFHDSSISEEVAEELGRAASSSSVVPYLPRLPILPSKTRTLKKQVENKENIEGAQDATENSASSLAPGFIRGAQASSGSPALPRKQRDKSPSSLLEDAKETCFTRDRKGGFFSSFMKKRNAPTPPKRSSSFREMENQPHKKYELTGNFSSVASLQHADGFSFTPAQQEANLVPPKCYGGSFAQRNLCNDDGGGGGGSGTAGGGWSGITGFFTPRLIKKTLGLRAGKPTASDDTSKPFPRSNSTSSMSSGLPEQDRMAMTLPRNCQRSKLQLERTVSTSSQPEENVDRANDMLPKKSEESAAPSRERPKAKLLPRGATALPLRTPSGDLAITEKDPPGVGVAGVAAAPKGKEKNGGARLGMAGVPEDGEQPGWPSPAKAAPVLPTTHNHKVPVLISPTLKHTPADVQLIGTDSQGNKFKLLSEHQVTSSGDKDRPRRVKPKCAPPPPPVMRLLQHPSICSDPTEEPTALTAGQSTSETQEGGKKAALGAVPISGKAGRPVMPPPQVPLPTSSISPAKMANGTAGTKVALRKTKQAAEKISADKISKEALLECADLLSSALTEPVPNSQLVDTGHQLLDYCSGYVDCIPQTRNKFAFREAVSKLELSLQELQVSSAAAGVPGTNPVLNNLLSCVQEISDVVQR

[15] = biological target: Ephrin type-A receptor 2 (Homo sapiens) (UniProt P29317); experiment: Inhibition of EPH-A2 (unknown origin) by Nano-syn mobility shift assay
[16] = biological target: Tyrosine-protein kinase Lck (Homo sapiens) (UniProt P06239); experiment: Inhibition of LCK (unknown origin) by Nano-syn mobility shift assay; conditions: concentration not given here
Chain of Tyrosine-protein kinase Lck (Homo sapiens) (P06239 2-509 limits assumed): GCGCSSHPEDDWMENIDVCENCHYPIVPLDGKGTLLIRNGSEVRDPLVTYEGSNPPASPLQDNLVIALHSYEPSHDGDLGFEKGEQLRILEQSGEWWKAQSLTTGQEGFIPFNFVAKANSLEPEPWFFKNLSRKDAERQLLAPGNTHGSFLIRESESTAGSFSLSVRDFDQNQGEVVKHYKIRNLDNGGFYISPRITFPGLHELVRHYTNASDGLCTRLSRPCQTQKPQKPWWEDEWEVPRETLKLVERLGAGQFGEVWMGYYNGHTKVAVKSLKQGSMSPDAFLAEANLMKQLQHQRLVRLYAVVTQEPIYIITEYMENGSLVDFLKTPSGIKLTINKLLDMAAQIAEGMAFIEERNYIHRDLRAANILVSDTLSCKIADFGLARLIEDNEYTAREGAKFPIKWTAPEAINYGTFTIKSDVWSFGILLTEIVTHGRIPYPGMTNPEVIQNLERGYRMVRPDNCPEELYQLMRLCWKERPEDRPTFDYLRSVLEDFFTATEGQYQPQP

[17] = biological target: High affinity nerve growth factor receptor (Homo sapiens) (UniProt P04629); experiment: Inhibition of NTRK1 (unknown origin) by Nano-syn mobility shift assay; conditions: concentration not given here
Chain of High affinity nerve growth factor receptor (Homo sapiens) (P04629 33-796 limits assumed): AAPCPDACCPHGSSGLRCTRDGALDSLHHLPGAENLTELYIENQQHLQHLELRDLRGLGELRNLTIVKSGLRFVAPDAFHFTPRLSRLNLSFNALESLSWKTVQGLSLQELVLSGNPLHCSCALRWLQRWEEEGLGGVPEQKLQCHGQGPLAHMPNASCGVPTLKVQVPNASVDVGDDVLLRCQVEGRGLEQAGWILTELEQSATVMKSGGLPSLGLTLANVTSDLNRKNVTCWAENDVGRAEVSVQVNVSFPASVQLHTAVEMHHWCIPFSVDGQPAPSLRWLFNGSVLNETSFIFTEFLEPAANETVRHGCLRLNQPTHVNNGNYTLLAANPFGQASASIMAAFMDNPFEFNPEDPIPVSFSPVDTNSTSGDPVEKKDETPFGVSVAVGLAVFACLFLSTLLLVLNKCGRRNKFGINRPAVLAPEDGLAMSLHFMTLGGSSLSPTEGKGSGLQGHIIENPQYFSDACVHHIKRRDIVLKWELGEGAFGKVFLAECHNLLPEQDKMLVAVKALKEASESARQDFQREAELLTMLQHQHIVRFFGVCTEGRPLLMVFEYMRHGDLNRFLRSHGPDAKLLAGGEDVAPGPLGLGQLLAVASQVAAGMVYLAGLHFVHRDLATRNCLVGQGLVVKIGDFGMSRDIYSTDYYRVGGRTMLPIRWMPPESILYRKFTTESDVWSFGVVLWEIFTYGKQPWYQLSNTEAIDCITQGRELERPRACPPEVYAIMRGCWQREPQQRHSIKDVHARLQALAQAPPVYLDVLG

[18] = biological target: Fibroblast growth factor receptor 1 (Homo sapiens) (UniProt P11362); experiment: Inhibition of FGFR1 (unknown origin) by Nano-syn mobility shift assay
[19] = biological target: Tyrosine-protein kinase receptor UFO (Homo sapiens) (UniProt P30530); experiment: Inhibition of AXL (unknown origin) by Nano-syn mobility shift assay
[20] = biological target: Receptor-type tyrosine-protein kinase FLT3 (Homo sapiens) (UniProt P36888); experiment: Inhibition of FLT3 (unknown origin) by Nano-syn mobility shift assay; conditions: concentration not given here
[21] = biological target: Platelet-derived growth factor receptor alpha (Homo sapiens) (UniProt P16234); experiment: Inhibition of PDFGRA (unknown origin) by Nano-syn mobility shift assay; conditions: concentration not given here
Chain of Platelet-derived growth factor receptor alpha (Homo sapiens) (P16234 whole entry, the tested form may be a part): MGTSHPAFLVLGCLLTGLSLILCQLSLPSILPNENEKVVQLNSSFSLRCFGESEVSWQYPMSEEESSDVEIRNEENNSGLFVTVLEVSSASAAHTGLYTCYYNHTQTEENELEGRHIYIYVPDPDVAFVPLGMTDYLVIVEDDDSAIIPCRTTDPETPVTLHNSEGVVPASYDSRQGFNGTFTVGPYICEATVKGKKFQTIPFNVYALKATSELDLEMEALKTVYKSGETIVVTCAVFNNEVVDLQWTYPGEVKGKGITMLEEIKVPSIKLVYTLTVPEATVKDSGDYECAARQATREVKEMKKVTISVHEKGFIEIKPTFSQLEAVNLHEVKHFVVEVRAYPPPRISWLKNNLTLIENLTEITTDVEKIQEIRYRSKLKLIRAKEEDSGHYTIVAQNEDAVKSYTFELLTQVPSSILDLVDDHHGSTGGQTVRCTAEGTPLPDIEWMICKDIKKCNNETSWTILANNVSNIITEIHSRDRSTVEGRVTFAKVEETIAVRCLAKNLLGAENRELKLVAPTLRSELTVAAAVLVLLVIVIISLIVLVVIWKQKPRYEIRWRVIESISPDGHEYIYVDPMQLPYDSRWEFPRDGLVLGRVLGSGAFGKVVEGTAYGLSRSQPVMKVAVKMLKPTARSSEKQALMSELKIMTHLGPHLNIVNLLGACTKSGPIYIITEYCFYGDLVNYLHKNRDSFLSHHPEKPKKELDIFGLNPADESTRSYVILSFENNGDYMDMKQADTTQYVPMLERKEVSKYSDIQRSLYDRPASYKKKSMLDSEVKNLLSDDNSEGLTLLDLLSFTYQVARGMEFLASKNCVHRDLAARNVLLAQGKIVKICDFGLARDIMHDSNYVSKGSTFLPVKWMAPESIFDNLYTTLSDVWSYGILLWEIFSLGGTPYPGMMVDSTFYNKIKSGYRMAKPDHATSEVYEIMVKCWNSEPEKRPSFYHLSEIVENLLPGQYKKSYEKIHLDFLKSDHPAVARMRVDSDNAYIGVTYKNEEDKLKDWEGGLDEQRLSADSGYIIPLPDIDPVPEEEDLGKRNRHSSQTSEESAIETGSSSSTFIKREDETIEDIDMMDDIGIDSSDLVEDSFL

[22] = biological target: Discoidin domain-containing receptor 2 (Homo sapiens) (UniProt Q16832); experiment: Inhibition of DDR2 (unknown origin) by Nano-syn mobility shift assay
[23] = biological target: Proto-oncogene tyrosine-protein kinase receptor Ret (Homo sapiens) (UniProt P07949); experiment: Inhibition of RET (unknown origin) by Nano-syn mobility shift assay
[24] = biological target: Muscle, skeletal receptor tyrosine-protein kinase (Homo sapiens) (UniProt O15146); experiment: Inhibition of MUSK (unknown origin) by Nano-syn mobility shift assay
[25] = biological target: Vascular endothelial growth factor receptor 3 (Homo sapiens) (UniProt P35916); experiment: Inhibition of FLT4 (unknown origin) by Nano-syn mobility shift assay
[26] = biological target: Platelet-derived growth factor receptor beta (Homo sapiens) (UniProt P09619); experiment: Inhibition of PDFGRB (unknown origin) by Nano-syn mobility shift assay
[27] = biological target: Ephrin type-A receptor 8 (Homo sapiens) (UniProt P29322); experiment: Inhibition of EPH-A8 (unknown origin) by Nano-syn mobility shift assay
[28] = species: Homo sapiens; experiment: Inhibition of LYNA (unknown origin) by Nano-syn mobility shift assay; conditions: concentration not given here
[29] = species: Homo sapiens; experiment: Inhibition of LYNB (unknown origin) by Nano-syn mobility shift assay; conditions: concentration not given here
[30] = biological target: Vascular endothelial growth factor receptor 1 (Homo sapiens) (UniProt P17948); experiment: Inhibition of FLT1 (unknown origin) by Nano-syn mobility shift assay
[31] = biological target: Tyrosine-protein kinase receptor UFO (Homo sapiens, UniProt P30530); experiment: Inhibition of AXL (unknown origin) using peptide substrate in presence of ATP by radiometric HotSpot assay

inhibition [11] | SMILES | GI50 [1] [nM] | IC50 [2] [nM] | GI50 [3] [nM] | inhibition [4] | inhibition [5] | inhibition [6] | inhibition [7] | inhibition [8] | GI50 [9] [nM] | inhibition [10] | inhibition [12] | inhibition [13] [%] | inhibition [14] [%] | inhibition [16] [%] | inhibition [17] [%] | inhibition [20] [%] | inhibition [21] [%] | inhibition [28] [%] | inhibition [29] [%] | other results
– | CN1CCN(Cc2ccc(NC(=O)Nc3ccc(Oc4ccc5cccnc5c4)cc3)cc2C(F)(F)F)CC1 | > 10000 | 637 | > 10000 | Active | Active | Active | Active | Active | 451 | Active | – | – | – | – | – | – | – | – | – | –
Active | CC(C)(C)c1cc(NC(=O)Nc2ccc(Oc3ccc4ncncc4c3)cc2)n(-c2ccc3ncccc3c2)n1 | 66 | – | 269 | – | – | – | – | – | 4 | – | Active | > 50 | > 50 | > 50 | > 50 | > 50 | > 50 | – | – | inhibition [15]: Active; inhibition [18]: Active; inhibition [19]: Active
– | CN1CCN(Cc2ccc(NC(=O)Nc3ccc(Oc4ccc5ncccc5c4)cc3)cc2C(F)(F)F)CC1 | 36 | 38.3 | 162 | Active | Active | Active | Active | Active | 6.9 | Active | – | > 50 | > 50 | > 50 | > 50 | > 50 | > 50 | > 50 | > 50 | inhibition [22]: Active; inhibition [23]: Active; inhibition [24]: Active; inhibition [25]: Active; inhibition [26]: Active; inhibition [27]: Active; inhibition [30]: Active
– | CC(C)(C)c1cc(NC(=O)Nc2ccc(Oc3ccc4ncccc4c3)cc2)n(-c2ccc3ncccc3c2)n1 | 164 | 345 | 801 | – | Active | Active | – | – | 13 | – | Active | > 50 | > 50 | > 50 | > 50 | > 50 | > 50 | > 50 | > 50 | IC50 [31]: 12 nM; inhibition [19]: Active
Active | CN1CCN(Cc2ccc(NC(=O)Nc3ccc(Oc4ccc5ncncc5c4)cc3)cc2C(F)(F)F)CC1 | 83 | 15.7 | 117 | Active | – | – | Active | Active | 2.3 | Active | – | > 50 | > 50 | > 50 | > 50 | > 50 | > 50 | > 50 | > 50 | inhibition [15]: Active; inhibition [18]: Active
– | CC(C)(C)c1cc(NC(=O)Nc2ccc(Oc3ccc4cccnc4c3)cc2)n(-c2ccc3ncccc3c2)n1 | > 5000 | 719 | > 10000 | – | Active | Active | – | – | 239 | – | – | – | – | – | – | – | – | – | – | –
